According to patent US7767666B2, “Butyl and butynyl benzyl amine compounds” (Janssen Pharmaceutica NV, priority 2006, dated 2010):

How the values were obtained:
human H3 receptor [1] = biological target: T1, human H3 receptor (Homo sapiens, UniProt Q9Y5N1); test: H3 receptor binding; settings: cloned human H3 receptor stably expressed in SK-N-MC cells
T1 construct: expressed in transfected cells

Rat SERT = biological target: T2, Rat SERT (Rattus norvegicus, UniProt P31652); test: Rat brain SERT [3H]-citalopram binding; settings: rat brain membranes, 0.6 nM [3H]-Citalopram, 60 min at 25° C.
T2 construct: A rat brain without cerebellum (Zivic Laboratories, Inc.—Pittsburgh, Pa.) was homogenized; tissue Zivic Laboratories, Inc; host or cells: rat brain without cerebellum, membrane preparation
T2 sequence (P31652 whole entry): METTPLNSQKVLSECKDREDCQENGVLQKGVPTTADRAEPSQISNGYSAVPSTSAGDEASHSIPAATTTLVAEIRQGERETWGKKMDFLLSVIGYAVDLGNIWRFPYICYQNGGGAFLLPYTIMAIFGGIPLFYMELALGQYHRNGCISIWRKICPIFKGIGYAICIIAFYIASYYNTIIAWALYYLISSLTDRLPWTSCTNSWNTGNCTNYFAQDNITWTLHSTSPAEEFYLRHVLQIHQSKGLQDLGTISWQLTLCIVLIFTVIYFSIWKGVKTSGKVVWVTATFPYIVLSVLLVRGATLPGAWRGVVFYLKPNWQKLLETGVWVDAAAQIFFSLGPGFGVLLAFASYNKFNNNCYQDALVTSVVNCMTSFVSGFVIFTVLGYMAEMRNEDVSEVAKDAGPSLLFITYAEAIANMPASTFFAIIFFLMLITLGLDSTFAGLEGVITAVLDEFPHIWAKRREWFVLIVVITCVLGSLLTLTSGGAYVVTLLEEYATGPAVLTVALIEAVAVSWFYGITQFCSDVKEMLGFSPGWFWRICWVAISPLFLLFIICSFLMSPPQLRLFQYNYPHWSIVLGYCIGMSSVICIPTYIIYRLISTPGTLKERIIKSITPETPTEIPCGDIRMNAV
Protocol: The supernatant was removed and re-centrifuged at 15,000 rpm for 30 min. […] Membranes were incubated with 0.6 nM [^3H]-Citalopram plus/minus test compounds for 60 min at 25° C. and harvested by rapid filtration over GF/C glass fiber filters (pretreated with 0.3% polyethylenimine) followed by four washes with ice-cold buffer.

human SERT = biological target: T3, human SERT (Homo sapiens, UniProt P31645); test: Human SERT 3H-citalopram binding; settings: HEK293 membranes expressing the human SERT, rt 1 h
T3 construct: expressed in transfected cells; host or cells: HEK293 membranes
T3 sequence (P31645 whole entry): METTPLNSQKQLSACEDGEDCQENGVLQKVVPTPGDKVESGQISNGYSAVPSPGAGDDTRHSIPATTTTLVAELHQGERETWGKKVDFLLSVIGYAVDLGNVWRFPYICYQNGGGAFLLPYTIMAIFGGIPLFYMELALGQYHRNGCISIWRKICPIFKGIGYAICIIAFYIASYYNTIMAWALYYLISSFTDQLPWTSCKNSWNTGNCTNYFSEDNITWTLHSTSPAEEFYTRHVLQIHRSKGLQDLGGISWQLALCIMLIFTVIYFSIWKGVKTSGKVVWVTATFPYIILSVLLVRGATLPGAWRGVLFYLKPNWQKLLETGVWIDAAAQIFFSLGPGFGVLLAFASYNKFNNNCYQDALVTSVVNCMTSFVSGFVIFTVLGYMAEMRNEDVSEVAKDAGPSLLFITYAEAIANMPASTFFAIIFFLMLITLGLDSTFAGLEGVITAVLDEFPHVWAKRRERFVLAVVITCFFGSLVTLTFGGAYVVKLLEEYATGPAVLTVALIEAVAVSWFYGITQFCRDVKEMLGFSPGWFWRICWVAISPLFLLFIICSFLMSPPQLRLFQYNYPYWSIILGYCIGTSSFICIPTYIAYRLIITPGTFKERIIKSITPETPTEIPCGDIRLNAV
Protocol: Homogenized HEK293 (Human Embryonic Kidney) membranes expressing the human SERT were incubated with ^3H-citalopram (SERT) at rt for 1 h in 50 mM Tris, 120 mM NaCl, 5 mM KCl (pH 7.4). […] The membranes were washed and the radioactivity was counted as above.

human H3 receptor [2] = biological target: T1, human H3 receptor; test: Cyclic AMP accumulation (β-galactosidase reporter); type: cell-based; settings: for pA2: SK-N-MC cells expressing human H3 receptor and reporter, histamine agonist, forskolin 5 μM, Schild regression of pEC50 values
Protocol: Sublines of SK—N-MC cells were created that expressed a reporter construct and the human H3 receptor. The reporter gene (β-galactosidase) is under the control of multiple cyclic AMP responsive elements. In 96-well plates, histamine was added directly to the cell media followed 5 min later by an addition of forskolin (5 μM final concentration). When appropriate, antagonists were added 10 min prior to agonist addition. After a 6-h incubation at 37° C., the media was aspirated and the cells washed with 200 μL of phosphate-buffered saline followed by a second aspiration. Cells were lysed with 25 μL 0.1× assay buffer (10 mM Na-phosphate, pH 8, 0.2 mM MgSO4, 0.01 mM MnCl2) and incubated at rt for 10 min. […] Color was developed using 25 μL of 1 mg/mL substrate solution (chlorophenolred β-D galactopyranoside; Roche Molecular Biochemicals, Indianapolis, Ind.).

T1 sequence (Q9Y5N1 whole entry): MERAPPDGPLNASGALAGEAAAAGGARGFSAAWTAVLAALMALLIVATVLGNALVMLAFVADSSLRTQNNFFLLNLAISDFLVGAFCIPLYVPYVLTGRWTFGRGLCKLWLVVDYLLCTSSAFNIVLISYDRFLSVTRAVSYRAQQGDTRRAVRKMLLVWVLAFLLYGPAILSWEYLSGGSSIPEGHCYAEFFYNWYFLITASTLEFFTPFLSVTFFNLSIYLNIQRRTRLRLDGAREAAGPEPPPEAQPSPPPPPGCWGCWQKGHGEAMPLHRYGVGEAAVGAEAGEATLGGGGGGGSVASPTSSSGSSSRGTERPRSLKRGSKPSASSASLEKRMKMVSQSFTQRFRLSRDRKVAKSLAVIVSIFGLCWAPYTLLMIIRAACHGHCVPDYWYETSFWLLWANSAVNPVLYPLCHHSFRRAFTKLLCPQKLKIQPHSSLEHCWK

Compound | Ki (human H3 receptor [1]) | Ki (Rat SERT) | Ki (human SERT) | Kb (human H3 receptor [2]; read-out: pA2 (converted)) | pA2 (human H3 receptor [2])
C(#Cc1ccc(Oc2cccnc2)c(CNC2CC2)c1)CCN1CCOCC1 [Example 23, Cyclopropyl-[5-(4-morpholin-4-yl-but-1-ynyl)-2-(pyridine-3-yloxy)-benzyl]-amine] | 0.7 nM | 18 nM | 58 nM | 0.251 nM | –
CNCc1cc(C#CCCN2CCOCC2)ccc1Oc1ccc(Cl)c(C(F)(F)F)c1 [Example 27, [2-(4-Chloro-3-trifluoromethyl-phenoxy)-5-(4-morpholin-4-yl-but-1-ynyl)-benzyl]-methyl-amine] | 13 nM | 7.3 nM | 17 nM | – | 7.89
CNCc1cc(C#CCCN2CCOCC2)ccc1Oc1ccc(F)cc1Cl [Example 28, [2-(2-Chloro-4-fluoro-phenoxy)-5-(4-morpholin-4-yl-but-1-ynyl)-benzyl]-methyl-amine] | 6 nM | 3.4 nM | 3.6 nM | – | 8.78
